# Patent US4038033A, “Selenium labelled compounds in the saturation analysis of cyclic nucleotide” (The Radiochemical Centre, Limited, priority 1975, dated 1977)
# What was measured:
# [1] = system: natural binding protein extracted from bovine muscle; assay: Saturation analysis of cyclic AMP: binding of 75Se-labelled cyclic AMP derivative to binding protein and displacement by cyclic AMP; settings: for Percentage of 75Se-labelled cyclic AMP bound: 3 picomoles ligand, pH 7.5, 2°-4° C., 3 hours; for binding to natural binding protein extracted from bovine muscle / displacement with 3',5'-cyclic AMP from natural binding protein: qualitative
# Method: Standard solutions of cyclic AMP containing 1, 2, 4, 8 and 16 picomoles in 50mmol tris/4mmol EDTA buffer, pH 7.5 (50μl) were pipetted into assay tubes maintained at 2°-4° C. Buffer was also added to `total` `blank` and `zero dose` tubes (150, 150 and 50μl respectively),also at 2-4' C. To each tube was added 8-methylseleno-cyclic AMP-^75 Se (3 picomoles; specific activity ca 22Ci/mmol) in 50μl of buffer.
# Binding protein (ex bovine muscle) in 100μl of buffer was then added to all tubes except the `blanks`. The tubes were vortex mixed for approximately 5 seconds and then incubated at 2°-4° C. for 3 hours. A suspension of charcoal in water (100μl) was added to all tubes except the `totals` and after vortex mixing for approximately 5 seconds the tubes were immediately centrifuged to sediment the charcoal. A 200μl sample was removed from the supernate of each tube and from the `totals` and counted in a gamma counter.
# (§1) Results are expressed in terms of […]
# [2] = system: Antiserum (raised against cyclic GMP-2'-succinyl-BSA); assay: Saturation analysis of cyclic GMP: binding of 8-methylseleno-cyclic GMP-75Se to antiserum and displacement by cyclic GMP; settings: for Percentage of 75Se-labelled cyclic GMP bound: 0.25 picomoles ligand, pH 7.5, 2°-4° C., 3 hours
# Method: Standard solutions of cyclic GMP containing 0.25, 0.5, 1.0, 2, 4, 8 and 16,000 picomoles in 100μl of 50mmol tris/4mmol EDTA buffer, pH 7.5, were pipetted into assay tubes maintained at 2°-4° C.; the concentration of 16,000 picomoles/100μl was for determination of `non-specific binding`. 100μl of buffer was also added to a tube for determination of `zero dose` counts. To each tube was added 8-methylseleno-cyclic GMP-^75 Se (0.25 picomoles, specific activity ca 24Ci/mmol) in 50μl of buffer. Antiserum (raised against cyclic GMP-2'-succinyl-BSA) in 50μl of buffer was then added to all tubes. The tubes were briefly vortex mixed and incubated at 2°-4° C. for 3 hours. 1ml of aqueous ammonium sulphate solution (60% saturated) at 2°-4° C. was added to all tubes which, after mixing, were kept at 2°-4° C. for 5 minutes and then centrifuged. After decantation of the supernate and removal of adhering liquid the precipitates were counted in a gamma counter. 0.25 picomoles of 8-methylseleno-cyclic GMP-^75 Se (specific activity ca 24Ci/mmol) in 50μl of buffer was also counted to give `total` counts.
# as §1
# [3] = system: binding protein; assay: Competitive inhibition of the binding of tritiated cyclic AMP to the binding protein; parameters: species or system bovine; settings: for % 3H-cyclic AMP bound: tritiated cyclic AMP 0.9pmol, zero-dose binding 54.5; for Cyclic AMP equivalent: unlabelled cyclic AMP giving equal reduction in binding
# Method: Because of the low activity of the 6-methylselenopurine riboside 3',5'-cyclic monophosphate-^75 Se its binding properties were investigated by using the selenium-75 compound as a competitive inhibitor of the binding of tritiated cyclic AMP to the binding protein.
# 6-methylselenopurine riboside 3',5'-cyclic monophosphate-^75 Se (specific activity 6.65m Ci/mmol) was made up in tris/EDTA buffer at concentrations of 1,156 pmoles, 105pmoles and 9.6pmoles per 50μl aliquot. In the normal assay 100μl of binding protein is incubated with tritiated cyclic AMP (0.9pmol) and unlabelled cyclic AMP (standards and unknowns). Bound and free labelled cyclic AMP are separated by absorption of free cyclic AMP on charcoal and bound activity is determined by counting a sample of the supernate. To determine the potency of the selenium analogue the zero-dose binding was first determined, ie. the percentage of tritiated cylic AMP bound in the absence of unlabelled cyclic AMP or selenium analogue. This was then compared with the binding of tritiated cylic AMP in the presence of 4 different doses of selenium analogue. From the results obtained it was possible to calculate the amounts of unlabelled cyclic AMP which would give a reduction in binding equal to that caused by the selenium analogue.
# [4] = system: antibodies raised against these cyclic nucleotides (3',5'-cyclic AMP and 3',5'-cyclic GMP); assay: Binding of selenocysteine conjugates to antibodies raised against the cyclic nucleotides; settings: qualitative
# [5] = system: Antiserum (raised against cyclic GMP-2'-succinyl-BSA); assay: Saturation analysis of cyclic GMP: binding of Se-methyl-L-selenocysteine-75Se conjugate of 2'-O-succinyl cyclic GMP to antiserum and displacement by cyclic GMP; settings: 0.59 picomoles ligand, pH 7.5, 2°-4° C., 3 hours
# Method: Standard solutions of cyclic GMP containing 5, 10, 20, 40, 80 and 16,000 picomoles in 100μl of 50mmol tris/4mmol EDTA buffer, pH 7.5 were pipetted into assay tubes maintained at 2°-4° C.; the concentration of 16,000 picomoles/100μl was for determination of `non-specific binding`. 100μl of buffer was also added to a tube for determination of `zero dose` counts. To each tube was added Se-methyl-L-selenocysteine-^75 Se conjugate of 2' -O-succinyl cyclic GMP (0.59 picomoles; specific activity ca 16.1Ci/mmol) in 50μl of buffer. Antiserum (raised against cyclic GMP-2'-succinyl-BSA) in 50μl of buffer was then added to all tubes. The tubes were briefly vortex mixed and incubated at 2°-4° C. for 3 hours. 1ml of aqueous ammonium sulphate solution (60% saturated) at 2°-4° C. was added to all tubes which, after mixing, were kept at 2°-4° C. for 5 minutes and then centrifuged.
# After decantation of the supernate and removal of adhering liquid the precipitates were counted in a gamma counter. 0.59 picomoles of the Se-methyl-L-selenocysteine-^75 Se conjugate of 2' -O-succinyl cyclic GMP in 50μl of buffer was also counted to give `total` counts.
# as §1
smiles,measurement,setting,value
"C[75Se]c1nc2c(N)ncnc2n1[C@@H]1O[C@@H]2COP(=O)(O)O[C@H]2[C@H]1O [I, 8-methylselenoadenosine 3', 5'-cyclic monophosphate-^75 Se]",Percentage of 75Se-labelled cyclic AMP bound,[1]; dose of cyclic AMP 0 picomoles,38.8%
same,Percentage of 75Se-labelled cyclic AMP bound,[1]; dose of cyclic AMP 1 picomole,29.7%
same,Percentage of 75Se-labelled cyclic AMP bound,[1]; dose of cyclic AMP 2 picomoles,26.7%
same,Percentage of 75Se-labelled cyclic AMP bound,[1]; dose of cyclic AMP 4 picomoles,21.4%
same,Percentage of 75Se-labelled cyclic AMP bound,[1]; dose of cyclic AMP 8 picomoles,16.6%
same,Percentage of 75Se-labelled cyclic AMP bound,[1]; dose of cyclic AMP 16 picomoles,10.6%
same,binding to natural binding protein extracted from bovine muscle,[1],shown to bind
same,"displacement with 3',5'-cyclic AMP from natural binding protein",[1],capable of displacement
"C[75Se]c1nc2c(=O)[nH]c(N)nc2n1[C@@H]1O[C@@H]2COP(=O)(O)O[C@H]2[C@H]1O [II, 8-methylselenoguanosine 3',5'-cyclic monophosphate-^75 Se]",Percentage of 75Se-labelled cyclic GMP bound,[2]; dose of cyclic GMP 0 picomoles,45.3%
same,Percentage of 75Se-labelled cyclic GMP bound,[2]; dose of cyclic GMP 0.25 picomoles,33.7%
same,Percentage of 75Se-labelled cyclic GMP bound,[2]; dose of cyclic GMP 0.5 picomoles,27.8%
same,Percentage of 75Se-labelled cyclic GMP bound,[2]; dose of cyclic GMP 1.0 picomoles,22.3%
same,Percentage of 75Se-labelled cyclic GMP bound,[2]; dose of cyclic GMP 2.0 picomoles,14.0%
same,Percentage of 75Se-labelled cyclic GMP bound,[2]; dose of cyclic GMP 4.0 picomoles,9.3%
same,Percentage of 75Se-labelled cyclic GMP bound,[2]; dose of cyclic GMP 8.0 picomoles,6.5%
same,binding to an antibody raised against cyclic GMP-2'-O-succinyl-BSA,[2]; qualitative,shown to bind
"C[75Se]c1ncnc2c1ncn2[C@@H]1O[C@@H]2COP(=O)(O)O[C@H]2[C@H]1O [III, 6methylselenopurineriboside-3',5'-cyclic monophosphate-^75 Se]",binding to natural binding protein extracted from bovine muscle,[1],shown to bind
same,"displacement with 3',5'-cyclic AMP from natural binding protein",[1],capable of displacement
same,cyclic AMP causing as much displacement of tritiated cyclic AMP,[3]; 9.6pmoles of Se analogue,12.2 pmol
same,% 3H-cyclic AMP bound,[3]; Se analogue 9.6 pmoles/50μl,5.06%
same,Cyclic AMP equivalent,[3]; Se analogue 9.6 pmoles/50μl,12.2 pmoles/50μl
same,% 3H-cyclic AMP bound,[3]; Se analogue 105 pmoles/50μl,0.96%
same,Cyclic AMP equivalent,[3]; Se analogue 105 pmoles/50μl,69.7 pmoles/50μl
same,% 3H-cyclic AMP bound,"[3]; Se analogue 1,156 pmoles/50μl",0.42%
same,Cyclic AMP equivalent,"[3]; Se analogue 1,156 pmoles/50μl",161 pmoles/50μl
same,binding power compared with cyclic AMP,[3]; at the concentration employed (9.6pmoles),very similar binding powers
C[75Se]C[C@H](NC(=O)CCC(=O)O[C@@H]1[C@@H]2OP(=O)(O)OC[C@H]2O[C@H]1n1cnc2c(N)ncnc21)C(=O)O [IV],binding to antibodies raised against these cyclic nucleotides,[4],bind strongly
C[75Se]C[C@H](NC(=O)CCC(=O)O[C@@H]1[C@@H]2OP(=O)(O)OC[C@H]2O[C@H]1n1cnc2c(=O)[nH]c(N)nc21)C(=O)O [V],Percentage of 75Se-labelled cyclic GMP bound,[5]; dose of cyclic GMP 0 picomoles,24.5%
same,Percentage of 75Se-labelled cyclic GMP bound,[5]; dose of cyclic GMP 5 picomoles,17.3%
same,Percentage of 75Se-labelled cyclic GMP bound,[5]; dose of cyclic GMP 10 picomoles,16.7%
same,Percentage of 75Se-labelled cyclic GMP bound,[5]; dose of cyclic GMP 20 picomoles,11.8%
same,Percentage of 75Se-labelled cyclic GMP bound,[5]; dose of cyclic GMP 40 picomoles,8.3%
same,Percentage of 75Se-labelled cyclic GMP bound,[5]; dose of cyclic GMP 80 picomoles,6.1%
same,binding to antibodies raised against these cyclic nucleotides,[4],bind strongly
